This note sets out measurements from patent EP4772507A1, “AZAINDOLE COMPOUND AND MEDICAL DRUG” (Nippon Shinyaku Co., Ltd., priority 2023, dated 2025).

For data set [1], the target named is T1, C-terminal catalytic domain of MALT1 (amino acid residues 329-824) (Homo sapiens, UniProt Q9UDY8).
T1 construct: C-terminal catalytic domain of MALT1 (amino acid residues 329-824)
T1 sequence (Q9UDY8 329-824): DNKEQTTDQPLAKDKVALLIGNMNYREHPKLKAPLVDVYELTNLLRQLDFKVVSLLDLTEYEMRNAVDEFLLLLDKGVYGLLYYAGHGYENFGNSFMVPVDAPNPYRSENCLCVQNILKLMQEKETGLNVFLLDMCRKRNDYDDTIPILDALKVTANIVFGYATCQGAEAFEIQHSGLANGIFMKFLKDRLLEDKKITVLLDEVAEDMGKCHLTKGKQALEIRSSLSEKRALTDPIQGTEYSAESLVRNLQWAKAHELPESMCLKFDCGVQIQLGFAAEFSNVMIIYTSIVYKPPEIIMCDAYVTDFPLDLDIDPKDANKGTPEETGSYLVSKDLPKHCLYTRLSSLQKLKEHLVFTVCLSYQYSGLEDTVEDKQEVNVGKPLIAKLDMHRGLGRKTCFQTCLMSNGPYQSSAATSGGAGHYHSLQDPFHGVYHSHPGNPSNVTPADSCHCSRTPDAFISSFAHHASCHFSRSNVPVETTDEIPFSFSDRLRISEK
Put plainly: MALT1 protease inhibitory activity (enzyme activity inhibition assay, fluorogenic substrate). Format: biochemical. The note with it: substrate Ac-Leu-Arg-Ser-Arg-AMC 50 µM; 30°C for 2 hours; fluorescence. On the procedure: To evaluate the enzyme inhibitory activity of a test substance against MALT1, an enzyme activity inhibition assay was conducted using the C-terminal catalytic domain of MALT1 (amino acid residues 329-824).
A test substance was prepared at a concentration of 10 mM in dimethyl sulfoxide (DMSO) and further diluted with DMSO to obtain final concentrations of 1000, 100, 10, 1, and 0.1 µM. The solutions were further diluted 25-fold with an assay buffer to prepare final test substance solutions. The composition of the assay buffer was 200 mM Tris/HCl HEPES (pH 7.5), 0.8 M Na citrate, 100 µM DTT, and 0.05% CHAPS.
The test substance solution was added to a 384-well black plate (#6007270, PerkinElmer) in an amount of 5 µL per well (n = 2; final concentrations of 10000, 1000, 100, 10, 1, and 0.1 nM), followed by the addition of 10 µL of MALT1 enzyme and finally 5 µL of a substrate solution (Ac-Leu-Arg-Ser-Arg-AMC, Peptide Institute, Inc.; final concentration in the reaction mixture: 50 µM), and after stirring, the mixture was allowed to react at 30°C for 2 hours. Fluorescence (excitation: 380 nm, emission: 460 nm) was detected using a microplate reader (EnVision, PerkinElmer).
Using the measurement data, non-linear regression analysis based on a 2-parameter logistic model was performed with Spotfire (PerkinElmer) to calculate IC50.

In a further data set the test system is OCI-Ly3 cell lines. Nature of the data set: Proliferation inhibition test, ABC-DLBCL cell line OCI-Ly3. Format: cell-based. The note with it: Homo sapiens; OCI-Ly3 (ABC-DLBCL, NF-κB pathway-dependent); 96 hours; Cell Counting Kit-8; read-out: Proliferation inhibitory activity against OCI-Ly3 IC50. On the procedure: (§1) In ABC-DLBCL cell lines, the NF-κB pathway is constitutively activated due to mutations in the B-cell receptor pathway. To evaluate the proliferation inhibitory activity associated with the MALT1 inhibitory activity of the test substance, a proliferation inhibition test was conducted using ABC-DLBCL cell lines.
(§2) The test substance was prepared at a concentration of 10 mM in dimethyl sulfoxide (DMSO) and further diluted with DMSO to each of concentrations of 3,000, 1,000, 300, 100, 30, and 10 µM. The solutions were further diluted 100-fold with IMDM medium containing 10% FBS to prepare test substance solutions.
(§3) OCI-Ly3 cell lines (ABC-DLBCL, NF-κB pathway-dependent) were cultured in IMDM containing 10% FBS, and SU-DHL-4 cell lines (GCB-DLBCL, NF-κB pathway-independent, used as a negative control) were cultured in RPMI-1640 containing 10% FBS. Into a 96-well plate, 2,000 cells of the OCI-Ly3 cell line and 4,000 cells of the SU-DHL-4 cell line were seeded in 100 µL per well, and 11 µL of the adjusted test substance solution was added thereto (final concentrations: 10,000, 3,000, 1,000, 300, 100, 30, and 10 nM). After 96 hours of incubation at 37°C in a 5% CO2 incubator, 10 µL of Cell Counting Kit-8 (Dojindo Laboratories) was added to each well. After 4 hours of incubation at 37°C, absorbance at 450 nm was detected using a microplate reader (EnVision, PerkinElmer).
(§4) Using the measurement data, non-linear regression analysis based on a 2-parameter logistic model was performed with Spotfire (PerkinElmer) to estimate IC50 values.
(In general: Tetrazolium assays rely on reduction of a dye to a coloured formazan, in cell work by metabolically active cells.)

Data set [2] concerns HEK293/API2-MALT1/NF-κB reporter cells. Nature of the data set: Inhibition of reporter activity in HEK293/API2-MALT1/NF-κB reporter cells. Type of data set: cell-based. The note with it: Homo sapiens, 24 hours with test substance, One-glo luminescence. On the procedure: The API2-MALT1 fusion protein, expressed in MALT lymphoma, is known to constitutively activate the NF-κB pathway. To evaluate the inhibitory effect of the test substance on the NF-κB pathway in cells, a reporter activity inhibition test was conducted using HEK293/API2-MALT1/NF-κB reporter cells.
The test substance was prepared at a concentration of 10 mM in dimethyl sulfoxide (DMSO) and further diluted with DMSO to each of concentrations of 1000, 300, 100, and 10 µM. The solutions were further diluted 100-fold with DMEM medium containing 10% FBS to prepare test substance solutions.
HEK293/API2-MALT1/NF-κB reporter cells and 293T/CMV reporter cells (used as a negative control) were cultured in DMEM medium containing 10% FBS. Into a 384-well plate (#781080, Greiner), 6,000 cells were seeded in 30 µL per well, and after culturing for 24 hours, 3.3 µL of the adjusted test substance solution was added thereto (final concentrations: 10,000, 1,000, 100, and 10 nM). After culturing for 24 hours at 37°C in a 5% CO2 incubator, 33 µL of One-glo (Promega) was added to each well. After a 5-minute incubation at room temperature, luminescence was detected using a microplate reader (EnVision, PerkinElmer).
Using the measurement data, non-linear regression analysis was performed with the SAS system (SAS Institute Inc.) to estimate IC50.

A further data set concerns SU-DHL-4 cell lines. Put plainly: Proliferation inhibition test, GCB-DLBCL cell line SU-DHL-4 (negative control line). Type of data set: cell-based. Particulars: Homo sapiens; SU-DHL-4 (GCB-DLBCL, NF-κB pathway-independent, negative control); 96 hours; Cell Counting Kit-8; read-out: Proliferation inhibitory activity against SU-DHL-4 IC50. On the procedure: as §1, §2, §3, §4

The nature of data set [3]: Central nervous system (CNS) penetration study in mice. The note with it: female, BALB/cCrSlc, mouse, ip, 30 mg/kg intraperitoneally, three hours later, cerebrum and plasma by LC-MS/MS, read-out: Brain-to-plasma concentration ratio (Kp value). Format: in vivo. As to the method: To evaluate the central nervous system (CNS) penetration of a test substance, a central nervous system penetration study was conducted using mice.
Six-week-old female BALB/cCrSlc mice (Japan SLC) were used. The test substance suspended in 0.5% methylcellulose was intraperitoneally administered to mice at a dose of 30 mg/kg. Three hours later, blood was collected from the abdominal vena cava under isoflurane anesthesia, and plasma was obtained by centrifugation. After exsanguination from the abdominal vena cava, the cerebrum was collected.
The drug concentrations of the collected plasma and cerebrum were measured by LC-MS/MS. To determine the brain penetration of the drug, the brain-to-plasma concentration ratio (Kp value) was calculated.

`C[C@@H]1CC(C(=O)c2cn(C3COC3)c3nc(-n4nccn4)c(Cl)cc23)C[C@@H](C)N1c1ncc(F)cc1I` (stereo partly drawn) [Example 1, [5-chloro-1-(oxetan-3-yl)-6-(2H-1,2,3-triazol-2-yl)-1H-pyrrolo[2,3-b]pyridin-3-yl][(2R,6R)-1-(5-fluoro-3-iodopyridin-2-yl)-2,6-dimethylpiperidin-4-yl]methanone]: the IC50 was determined as 45 nM in data set [1], 620 nM with OCI-Ly3 cell lines, 170 nM in data set [2] and 5400 nM in the data set on SU-DHL-4 cell lines. In addition, the Kp at 3 h in data set [3] was found to be 1.6.
Taken in the same sequence, the figures for `C[C@@H]1CC(C(=O)c2cn(C)c3nc(-n4nccn4)c(Cl)cc23)C[C@@H](C)N1c1ncc(F)cc1I` (stereo partly drawn) [Example 2, [5-chloro-1-methyl-6-(2H-1,2,3-triazol-2-yl)-1H-pyrrolo[2,3-b]pyridin-3-yl][(2R,6R)-1-(5-fluoro-3-iodopyridin-2-yl)-2,6-dimethylpiperidin-4-yl]methanone] were 18 nM, 300 nM, 60 nM, 7200 nM and 1.2.
The matching figures for `C[C@@H]1CC(C(=O)c2cn(CC#N)c3nc(-n4nccn4)c(Cl)cc23)C[C@@H](C)N1c1ncc(F)cc1I` (stereo partly drawn) [Example 3, {5-chloro-3-[(2R,6R)-1-(5-fluoro-3-iodopyridin-2-yl)-2,6-dimethylpiperidin-4-carbonyl]-6-(2H-1,2,3-triazol-2-yl)-1H-pyrrolo[2,3-b]pyridin-1-yl}acetonitrile]: 43 nM, 580 nM, 200 nM, 6300 nM and 0.73.
As to `CC(=O)N1CC(n2cc(C(=O)C3C[C@@H](C)N(c4ncc(F)cc4I)[C@H](C)C3)c3cc(Cl)c(-n4nccn4)nc32)C1` (stereo partly drawn) [Example 5, 1-(3-{5-chloro-3-[(2R,6R)-1-(5-fluoro-3-iodopyridin-2-yl)-2,6-dimethylpiperidin-4-carbonyl]-6-(2H-1,2,3-triazol-2-yl)-1H-pyrrolo[2,3-b]pyridin-1-yl}azetidin-1-yl)ethan-1-one], the IC50 in data set [1] was 35 nM; in the data set with OCI-Ly3 cell lines, 310 nM; in data set [2], 160 nM; in the data set with SU-DHL-4 cell lines, 3600 nM. Moreover, in data set [3], the Kp at 3 h turned out to be 0.12.
Regarding `Cn1cc(C(=O)c2cnn(-c3cncc4c(F)cccc34)c2C(F)(F)F)c2cc(Cl)c(-n3nccn3)nc21` [Example 6, [5-chloro-1-methyl-6-(2H-1,2,3-triazol-2-yl)-1H-pyrrolo[2,3-b]pyridin-3-yl][1-(8-fluoroisoquinolin-4-yl)-5-(trifluoromethyl)-1H-pyrazol-4-yl]methanone], the IC50 in data set [1] was 13 nM; with OCI-Ly3 cell lines, 150 nM; in data set [2], 75 nM; with SU-DHL-4 cell lines, 2300 nM. In data set [3], the Kp at 3 h is 0.83.
Taken in the same sequence, the figures for `CCn1cc(C(=O)c2cnn(-c3cncc4c(F)cccc34)c2C(F)(F)F)c2cc(Cl)c(-n3nccn3)nc21` [Example 7, [5-chloro-1-ethyl-6-(2H-1,2,3-triazol-2-yl)-1H-pyrrolo[2,3-b]pyridin-3-yl][1-(8-fluoroisoquinolin-4-yl)-5-(trifluoromethyl)-1H-pyrazol-4-yl]methanone] were 25 nM, 130 nM, 150 nM, 3200 nM and 0.52.
The matching figures for `CCCn1cc(C(=O)c2cnn(-c3cncc4c(F)cccc34)c2C(F)(F)F)c2cc(Cl)c(-n3nccn3)nc21` [Example 8, [5-chloro-1-propyl-6-(2H-1,2,3-triazol-2-yl)-1H-pyrrolo[2,3-b]pyridin-3-yl][1-(8-fluoroisoquinolin-4-yl)-5-(trifluoromethyl)-1H-pyrazol-4-yl]methanone]: 39 nM, 110 nM, 280 nM, 2400 nM and 0.52.
Consider `C[C@@H]1CC(C(=O)c2cn(CCCO)c3nc(-c4ncccn4)c(Cl)cc23)C[C@@H](C)N1c1ncc(F)cc1I` (stereo partly drawn) [Example 9, [5-chloro-1-(3-hydroxypropyl)-6-(pyrimidin-2-yl)-1H-pyrrolo[2,3-b]pyridin-3-yl][(2R,6R)-1-(5-fluoro-3-iodopyridin-2-yl)-2,6-dimethylpiperidin-4-yl]methanone], for which the IC50 in data set [1] was 69 nM; in the data set on OCI-Ly3 cell lines, 480 nM; in data set [2] it was 140 nM; in the data set on SU-DHL-4 cell lines, 5100 nM. Besides, in data set [3], the Kp at 3 h came out at 1.4.
In the case of `C[C@@H]1CC(C(=O)c2cn(C3CC3)c3nc(-n4nccn4)c(Cl)cc23)C[C@@H](C)N1c1ncc(F)cc1I` (stereo partly drawn) [Example 16, [5-chloro-1-cyclopropyl-6-(2H-1,2,3-triazol-2-yl)-1H-pyrrolo[2,3-b]pyridin-3-yl][(2R,6R)-1-(5-fluoro-3-iodopyridin-2-yl)-2,6-dimethylpiperidin-4-yl]methanone], the values for the IC50 (in data set [1]; in the data set on OCI-Ly3 cell lines; in the data set on SU-DHL-4 cell lines) were 310 nM, 720 nM and 9700 nM, respectively. Besides, in data set [3], the Kp at 3 h was 0.28.
